Entries after “also recorded” stand apart in the source; their conditions may differ.
Experiments:
[1] = system: adult female B. pahangi; assay: Transmission electron microscopy of treated adult female B. pahangi; assay type: cell-based, Brugia pahangi; conditions: flubendazole 10 μM overnight, positive control
Protocol: Adult female B. pahangi worms were incubated with either 1 μM, 0.3 μM, or 0.1 μM auranofin, 10 μM flubendazole (as a positive control), or 1% DMSO overnight, then cut into 3 segments separating the anterior, middle and posterior sections. The middle sections were further cut into 1 mm sized pieces in fixative (2.5% glutaraldehyde and 2% paraformaldehyde in 0.1 M sodium cacodylate buffer, pH 7.3–7.4) and stored at 4°C. Middle sections were subsequently treated with 1% tannic acid for 1 hour, followed by three buffer washes before post fixation staining with 2% osmium tetroxide for 1 hour. The samples were washed three times in buffer before dehydration in an ethanol series. Worm sections were then infiltrated with propylene oxide, embedded in epon 812 resin and polymerized in a vacuum oven at 60°C overnight. Ultrathin sections were cut using an RMC MTX ultramicrotome with a Diatome diamond knife followed by post staining of the grids with saturated ethanolic uranyl acetate and Reynolds lead citrate. Samples were imaged on a FEI Tecnai 12 spirit TEM operated at 80 kV. A similar procedure was performed on adult female O. ochengi worm masses that were cultured for 7 days with 10 μM auranofin before fixation of cut pieces of the adult female mass. Untreated adult female masses cultured for 7 days and fixed by the same procedure served as the control.

[2] = system: Recombinant B. malayi TrxR (rBmTrxR); assay: Recombinant B. malayi TrxR (rBmTrxR) DTNB inhibition assay; assay type: biochemical, Brugia malayi
Protocol: Recombinant 6-His-tagged B. malayi TrxR (rBmTrxR) was produced in E. coli BL21(DE3) in the presence of pSUABC [29] in LB medium supplemented with 20 μg/mL riboflavin under conditions for optimal selenoprotein expression. An overnight starter culture in LB with 50 μg/mL ampicillin and 34 μg/mL chloramphenicol was diluted (1:100) into in LB medium with the same antibiotics. When the culture reached an OD600 = 0.8, the medium was supplemented with 5 μM sodium selenite and 100 μg/mL L-cysteine. When the culture OD600 = 2, riboflavin (20 μg/mL) was added and protein expression was induced by the addition of isopropyl β-D-1-thiogalactopyranoside (50 μM). At this point the cultures were shifted to 24°C and incubated for 24 hr. Cells were collected by centrifugation, lysed by alternative freeze-thaw cycles, and resuspended in lysis buffer (50 mM potassium phosphate, pH 7.8, 500 mM NaCl, 30 mM imidazole, 1 mg/mL lysozyme, 1 mM phenylmethanesulfonylfluoride) supplemented with 100 μM flavin adenine dinucleotide. The sample was sonicated and cellular debris pelleted at 25,000 x g at 4°C for 25 min. The supernatant was collected and filtered through a 0.45 μm filter before purification by immobilized metal ion affinity chromatography using a His-Trap FF column (GE Healthcare). The column was washed with 10 column volumes binding buffer (50 mM potassium phosphate, pH 7.8, 500 mM NaCl, 30 mM imidazole) and then with 5 column volumes of buffer A (binding buffer with 100 mM imidazole). TrxR protein was eluted in 3 × 1 mL buffer B (binding buffer with 500 mM imidazole).Protein was concentrated (Amicon Ultra-4 10K) and purity was verified by SDS-PAGE and quantified by absorbance at 280 nm (ε = 69.76 mM^-1 cm^-1).
rBmTrxR activity was assayed in 0.1 M potassium phosphate (pH 7.2) with 10 mM EDTA and 25 nM rBmTrxR. rBmTxrR was pre-incubated for 20 min with NADPH (100 μM) and auranofin (ICN Pharmaceuticals, now Valeant Pharmaceuticals, Bridgewater, NJ) or aurothioglucose (USP Reference Standards, Rockville, MD) in DMSO in 100 μL, followed by addition of an equal volume of buffer with NADPH (200 μM) and DTNB (6 mM) with reaction progress monitored at λ = 412 nm for TNB production. The concentration of DMSO in all reactions was 3.5%.

COC(=O)Nc1nc2cc(C(=O)c3ccc(F)cc3)ccc2[nH]1 [flubendazole]
ultrastructure (TEM) of adult female B. pahangi [1]: normal Wolbachia with very few mitochondria containing dark bodies; also recorded: did not cause vacuolization but only minor changes to the mitochondria

aurothioglucose
mode of inhibition of rBmTrxR [2]: irreversibly inhibit rBmTrxR at a one-to-one molar ratio | IC50 ([2]; 25 nM rBmTrxR, 20 min pre-incubation with NADPH, DTNB substrate): 9 nM

— paper PMC4336141, “Repurposing Auranofin as a Lead Candidate for Treatment of Lymphatic Filariasis and Onchocerciasis” (PLoS Neglected Tropical Diseases, 2015)
